Assay [1] concerns SMS-KCNR MYCN-amplified NB cell line xenografts. Nature of the assay: Neuroblastoma xenograft study, SMS-KCNR model. The assay is classed as in vivo, athymic nude mice. The conditions noted are these: SMS-KCNR xenografts about 70 mm^3, 20 days of treatment, each agent alone and in combination. As for the experimental part:
(§1) SMS-KCNR, NMB, and NBL-W-S MYCN amplified NB cell lines were used in this study. Cells were grown at 5% CO2 in RPMI 1640 (Invitrogen, Carlsbad, Calif.) supplemented with 10% heat-inactivated fetal bovine serum, L-Glutamine, and antibiotics.
(§2) Lyophilized peptides with the sequence: acetyl-sarcosine-glycine-valine-D-alloisoleucine-threonine-norvaline-isoleucine-arginine-proline-ethylamide were dissolved in sterile 5% dextrose and stored at 4° C.
(§3) Female 4-6 week old homozygous athymic nude mice (Harlan, Madison, Wis.) were inoculated s.c. into the right flank with ^1×107SMS-KCNR or 1.25×10^7 NMB cells. Once tumors were palpable (70 mm^3), mice were treated 1×/day for 20 days with either acetyl-sarcosine-glycine-valine-Dalloisoleucine-threonine-norvaline-isoleucine-arginine-proline-ethylamide (IP, 40 mg/kg), VPA (IP, 400 mg/kg) or acetyl-sarcosine-glycine-valine-D-alloisoleucine-threonine-norvaline-isoleucine-arginine-proline-ethylamide and VPA (in combination). In separate experiments, treatment was started after the animals developed larger tumors>380 mm^3 in size and treatment was continued for 10 days. Tumor volumes were measured twice a week and calculated using the formula: tumor volume =(length X width^2)/2(25). The Student's t-test was used to compare tumor size in the control and treatment groups. Mice were sacrificed after 20 or 10 days of treatment, respectively. […]

The test system of assay [2] is NMB MYCN-amplified NB cell line xenografts. Kind of assay: Neuroblastoma xenograft study, NMB xenografts. The conditions noted are these: NMB xenografts about 70 mm^3, 20 days of treatment, each agent alone and in combination. Format: in vivo, athymic nude mice. As for the experimental part: as §1, §2, §3
The test system of the next assay is large NB xenografts. The note with it: large xenografts >380 mm^3, after 10 days of treatment; peptide p<0.01, VPA p<0.001; FIG. 1C. As for the experimental part:
as §1, §2, §3

Results on 2 compounds are retold here after patent publication US20080004222A1, “Antitumorigenic Drug Combination” (priority 2006, published 2008).

Non-standard residues stand in square brackets, D forms with d. d(aIle) = CC[C@H](C)[C@@H](N)C(=O)O; Nva = CCC[C@H](N)C(=O)O; Sar = CNCC(=O)O

In the case of `CCCC(CCC)C(=O)O` [VPA, valproic acid], the “tumor growth (result in words)” value in assay [1] and in assay [2] was “Tumor growth was inhibited” throughout. Further, in the assay with large NB xenografts, the tumor volumes reduced is 44%.
On to Ac-[Sar]GV[d(aIle)]T[Nva]IRP-NHEt, for which the “tumor growth (result in words)” value in assay [1] and in assay [2] was “Tumor growth was inhibited” each time. Also, the tumor volumes reduced in the assay on large NB xenografts is on record as 33%.
